This assay deals with T1, SRPK2 (Homo sapiens, UniProt P78362).
T1 construct: purchased Thermo Fisher Scientific (Life Technologies) SelectScreen
Put plainly: SelectScreen Z'LYTE. The class given is biochemical. In short, it runs like this: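 Percent values come from Thermo SelectScreen profiling of NU5455, combining activity and binding assays. CSF1R was run in Z'LYTE format at Km app ATP, and CAMK1 in Adapta format with ATP listed at 10.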

Consider one molecule from article PMC6934184, “Selective DNA-PKcs inhibition extends the therapeutic index of localized radiotherapy and chemotherapy” (The Journal of Clinical Investigation, 2019).

T1 sequence (P78362 whole entry): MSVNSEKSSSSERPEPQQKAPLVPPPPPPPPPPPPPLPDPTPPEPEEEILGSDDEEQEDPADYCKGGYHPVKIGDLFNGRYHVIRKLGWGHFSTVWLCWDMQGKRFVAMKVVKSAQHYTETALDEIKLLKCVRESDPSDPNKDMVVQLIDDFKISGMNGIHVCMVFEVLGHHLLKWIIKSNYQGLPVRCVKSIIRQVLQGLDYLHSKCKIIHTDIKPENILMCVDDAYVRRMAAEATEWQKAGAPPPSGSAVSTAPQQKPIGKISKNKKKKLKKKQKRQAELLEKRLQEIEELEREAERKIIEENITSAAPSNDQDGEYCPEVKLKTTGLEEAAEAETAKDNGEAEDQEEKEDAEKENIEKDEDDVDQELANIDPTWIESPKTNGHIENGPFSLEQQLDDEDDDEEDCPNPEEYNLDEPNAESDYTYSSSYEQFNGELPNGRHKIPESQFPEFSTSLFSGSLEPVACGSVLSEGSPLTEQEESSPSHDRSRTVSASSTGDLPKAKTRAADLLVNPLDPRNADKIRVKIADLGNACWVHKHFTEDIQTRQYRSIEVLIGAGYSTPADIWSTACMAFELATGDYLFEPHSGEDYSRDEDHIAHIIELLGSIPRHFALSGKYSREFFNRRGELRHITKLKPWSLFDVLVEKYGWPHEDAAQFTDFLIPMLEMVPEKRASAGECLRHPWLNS

A word on the inhibition: it is the change of the read-out against control, counted positive when it falls. Low values mean a weak effect, high ones a strong effect. Molecule `CN(C(=O)CN1CCOCC1)c1ccc2sc3c(-c4cccc5c(=O)cc(N6CC7CCC(C6)O7)oc45)cccc3c2c1` [NU5455] yielded an inhibition at 1 µM of 3.9%.
